By Km is commonly meant the substrate concentration at which the rate is half of its maximum. The term Vmax denotes the rate approached at saturating substrate. By kcat is commonly meant the number of substrate molecules converted per active site and unit of time at saturation. As usually defined, the kcat/Km is the turnover number divided by the Michaelis constant.

Activity calls are given as the source filed them. The calls are words filed in the database; no cut-off is given here. Non-standard residues stand in square brackets, D forms with d. Residues, ends and D or L forms follow the SMILES beside them. *: point of attachment. Phe(4-Br) = N[C@@H](Cc1ccc(Br)cc1)C(=O)O; Fmoc = O=C(OCC1c2ccccc2-c2ccccc21)*; PEG6 = NCCOCCOCCOCCOCCOCCOCCC(=O)O; Palmitoyl = CCCCCCCCCCCCCCCC(=O)*; NMeL = CN[C@@H](CC(C)C)C(=O)O; Nle = CCCC[C@H](N)C(=O)O; Aib = CC(C)(N)C(=O)O

The test system of data set [1] is Mus musculus. Description: Blood pressure lowering activity in anesthetized mouse assessed as change in mean arterial blood pressure at 1.4 uM/kg, iv. In kind it is functional. The conditions noted are these: TDE = time-dependent effect.
The target in data set [2] is T1, Apelin receptor (Rattus norvegicus) (UniProt Q9JHG3).
T1 sequence (whole entry): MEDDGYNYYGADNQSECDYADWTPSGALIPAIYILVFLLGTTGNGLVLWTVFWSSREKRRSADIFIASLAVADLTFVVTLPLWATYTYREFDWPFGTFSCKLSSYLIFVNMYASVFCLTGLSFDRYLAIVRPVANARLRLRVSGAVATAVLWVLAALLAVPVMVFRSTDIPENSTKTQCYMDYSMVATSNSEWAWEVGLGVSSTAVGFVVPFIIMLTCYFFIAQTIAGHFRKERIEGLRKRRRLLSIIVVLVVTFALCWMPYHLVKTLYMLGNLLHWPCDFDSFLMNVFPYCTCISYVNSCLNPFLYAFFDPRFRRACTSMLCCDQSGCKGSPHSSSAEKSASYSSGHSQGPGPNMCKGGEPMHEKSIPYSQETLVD
Description: Displacement of [125I]-(Glp1,Nle11,[…])apelin-13 from recombinant rat EGFP-fused apelin receptor expressed in CHO cell membrane measured after 3 hrs. The class given is cell membranes.

The subject of data set [3] is Mus musculus. Description: Blood pressure lowering activity in anesthetized mouse assessed as increase in heart rate at 1.4 uM/kg, iv measured up to 60 mins. In kind it is functional, organism-based.
For data set [4], the system named is CCCC[C@H](NC(=O)[C@@H]1CCCN1C(=O)CNC(=O)[C@H](CCCCN)NC(=O)[C@H](Cc1c[nH]cn1)NC(=O)[C@H](CO)NC(=O)[C@H](CC(C)C)NC(=O)[C@H](CCCNC(=N)N)NC(=O)[C@@H]1CCCN1C(=O)[C@H](CCCNC(=N)N)NC(=O)[C@H](CCC(N)=O)NC(=O)[C@H](CCCNC(=N)N)NC(=O)[C@H](CCCNC(=N)N)NC(=O)[C@H](Cc1ccccc1)NC(=O)[C@@H](N)CCCCN)C(=O)NC(C)(C)C(=O)N[C@@H](Cc1ccc(Br)cc1)C(=O)O. Description: (§1) Substrate activity at recombinant human C-terminal His6-tagged KLKB1 (Pro19 to Ser262 residues) expressed in mammalian expression system assessed as Km measured after 30 to 60 mins by LC-MS analysis. The class given is ADME.

Data set [5] has as its system CCCC[C@H](NC(=O)[C@@H]1CCCN1C(=O)CNC(=O)[C@H](CCCCN)NC(=O)[C@H](Cc1c[nH]cn1)NC(=O)[C@H](CO)NC(=O)[C@H](CC(C)C)N(C)C(=O)[C@H](CCCNC(=N)N)NC(=O)[C@@H]1CCCN1C(=O)[C@H](CCCNC(=N)N)NC(=O)[C@H](CCC(N)=O)NC(=O)[C@H](CCCNC(=N)N)NC(=O)[C@H](CCCNC(=N)N)NC(=O)[C@H](Cc1ccccc1)NC(=O)[C@@H](N)CCCCN)C(=O)NC(C)(C)C(=O)N[C@@H](Cc1ccc(Br)cc1)C(=O)O. Described as §1. The class given is ADME.

For data set [6], the system named is CC[C@H](C)[C@H](NC(=O)[C@H](CCCNC(=N)N)NC(=O)[C@H](CO)NC(=O)[C@H](CO)NC(=O)[C@H](CCCNC(=N)N)NC(=O)[C@H](Cc1ccccc1)NC(=O)[C@@H]1CCCN1C(=O)[C@H](CO)NC(=O)[C@H](Cc1ccccc1)NC(=O)CNC(=O)c1ccccc1N)C(=O)N[C@@H](CCC(N)=O)C(=O)NCCNc1ccc([N+](=O)[O-])cc1[N+](=O)[O-]. Description: (§2) Substrate activity at human KLKB1 assessed as Km by fluorescence assay. In kind it is ADME.

Data set [7] deals with CC[C@H](C)[C@H](NC(=O)[C@H](CCCNC(=N)N)NC(=O)[C@H](CC(C)C)NC(=O)[C@H](CO)NC(=O)[C@H](CCCNC(=N)N)NC(=O)[C@H](Cc1ccccc1)NC(=O)[C@@H]1CCCN1C(=O)[C@H](CO)NC(=O)[C@H](Cc1ccccc1)NC(=O)CNC(=O)c1ccccc1N)C(=O)N[C@@H](CCC(N)=O)C(=O)NCCNc1ccc([N+](=O)[O-])cc1[N+](=O)[O-]. The description is as §2. In kind it is ADME.
Data set [8] relates to CSCC[C@H](NC(=O)[C@H](CO)NC(=O)[C@H](CO)NC(=O)[C@H](CC(C)C)NC(=O)[C@@H](N)CO)C(=O)N[C@H](C(=O)N[C@@H](CCCNC(=N)N)C(=O)N[C@H](C(=O)N[C@H](C(=O)NCC(=O)NCC(=O)O)C(C)C)C(C)C)[C@@H](C)O. In words: Substrate activity at human KLKB1 assessed as Km by spectrofluorimetric method. The class given is ADME.

Chain of Plasma kallikrein (Homo sapiens) (chain, as listed by the source): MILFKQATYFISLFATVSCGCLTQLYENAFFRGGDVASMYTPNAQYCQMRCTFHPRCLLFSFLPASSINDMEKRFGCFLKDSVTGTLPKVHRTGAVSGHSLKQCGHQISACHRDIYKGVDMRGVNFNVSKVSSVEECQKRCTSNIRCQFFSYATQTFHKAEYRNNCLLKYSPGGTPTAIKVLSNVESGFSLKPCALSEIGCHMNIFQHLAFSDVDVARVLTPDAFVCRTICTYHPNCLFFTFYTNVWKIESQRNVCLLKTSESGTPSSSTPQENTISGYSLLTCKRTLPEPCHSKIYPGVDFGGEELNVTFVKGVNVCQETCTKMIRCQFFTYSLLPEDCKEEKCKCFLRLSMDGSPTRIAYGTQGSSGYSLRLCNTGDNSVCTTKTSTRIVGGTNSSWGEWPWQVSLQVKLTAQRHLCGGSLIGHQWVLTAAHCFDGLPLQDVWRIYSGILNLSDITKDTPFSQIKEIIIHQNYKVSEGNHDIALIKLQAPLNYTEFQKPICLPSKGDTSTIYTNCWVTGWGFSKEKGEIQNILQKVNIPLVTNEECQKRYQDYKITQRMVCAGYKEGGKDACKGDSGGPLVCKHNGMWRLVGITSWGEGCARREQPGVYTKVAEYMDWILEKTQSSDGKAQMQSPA

In the case of `CSCC[C@H](NC(=O)[C@@H]1CCCN1C(=O)CNC(=O)[C@H](CCCCN)NC(=O)[C@H](Cc1cnc[nH]1)NC(=O)[C@H](CO)NC(=O)[C@H](CC(C)C)NC(=O)[C@H](CCCNC(=N)N)NC(=O)[C@@H]1CCCN1C(=O)[C@H](CCCNC(=N)N)NC(=O)[C@H](CCC(N)=O)NC(=O)[C@H](CCCNC(=N)N)NC(=O)[C@H](CCCNC(=N)N)NC(=O)[C@H](Cc1ccccc1)NC(=O)[C@@H](N)CCCCN)C(=O)N1CCC[C@H]1C(=O)N[C@@H](Cc1ccccc1)C(=O)O`, the Activity result with Mus musculus [1] was “Tde”.
Regarding `CCCC[C@H](NC(=O)[C@@H]1CCCN1C(=O)CNC(=O)[C@H](CCCCN)NC(=O)[C@H](Cc1c[nH]cn1)NC(=O)[C@H](CO)NC(=O)[C@H](CC(C)C)NC(=O)[C@H](CCCNC(=N)N)NC(=O)[C@@H]1CCCN1C(=O)[C@H](CCCNC(=N)N)NC(=O)[C@H](CCC(N)=O)NC(=O)[C@H](CCCNC(=N)N)NC(=O)[C@H](CCCNC(=N)N)NC(=O)[C@H](Cc1ccccc1)NC(=O)[C@@H](N)CCCCN)C(=O)NC(C)(C)C(=O)N[C@@H](Cc1ccc(Br)cc1)C(=O)O` (H-KFRRQRPRLSHKGP[Nle][Aib][Phe(4-Br)]-OH), the “displacement activity (active/inactive)” value in data set [2] was “Active”. The Activity entry in the data set with Mus musculus [1] is “Tde”.
Regarding `CCCC[C@H](NC(=O)[C@@H]1CCCN1C(=O)CNC(=O)[C@H](CCCCN)NC(=O)[C@H](Cc1c[nH]cn1)NC(=O)[C@H](CO)NC(=O)[C@H](CC(C)C)N(C)C(=O)[C@H](CCCNC(=N)N)NC(=O)[C@@H]1CCCN1C(=O)[C@H](CCCNC(=N)N)NC(=O)[C@H](CCC(N)=O)NC(=O)[C@H](CCCNC(=N)N)NC(=O)[C@H](CCCNC(=N)N)NC(=O)[C@H](Cc1ccccc1)NC(=O)[C@@H](N)CCCCN)C(=O)NC(C)(C)C(=O)N[C@@H](Cc1ccc(Br)cc1)C(=O)O` (H-KFRRQRPR[NMeL]SHKGP[Nle][Aib][Phe(4-Br)]-OH), the “displacement activity (active/inactive)” value in data set [2] was “Active”. For the same compound, the Activity result with Mus musculus [1] was “Tde”.
The like results for `CCCC[C@H](NC(=O)[C@@H]1CCCN1C(=O)CNC(=O)[C@H](CCCCN)NC(=O)[C@H](Cc1cnc[nH]1)NC(=O)[C@H](CO)NC(=O)[C@H](CC(C)C)NC(=O)[C@H](CCCNC(=N)N)NC(=O)[C@@H]1CCCN1C(=O)[C@H](CCCNC(=N)N)NC(=O)[C@H](CCC(N)=O)NC(=O)[C@@H](N)CCCNC(=N)N)C(=O)NC(C)(C)C(=O)N[C@@H](Cc1ccc(Br)cc1)C(=O)O` (H-RQRPRLSHKGP[Nle][Aib][Phe(4-Br)]-OH) were, in that order, “Active” and “Tde”.
For `CCCC[C@H](NC(=O)[C@@H]1CCCN1C(=O)CNC(=O)[C@H](CCCCN)NC(=O)[C@H](Cc1cnc[nH]1)NC(=O)[C@H](CO)NC(=O)[C@H](CC(C)C)N(C)C(=O)[C@H](CCCNC(=N)N)NC(=O)[C@@H]1CCCN1C(=O)[C@H](CCCNC(=N)N)NC(=O)[C@H](CCC(N)=O)NC(=O)[C@@H](N)CCCNC(=N)N)C(=O)NC(C)(C)C(=O)N[C@@H](Cc1ccc(Br)cc1)C(=O)O` (H-RQRPR[NMeL]SHKGP[Nle][Aib][Phe(4-Br)]-OH), the “displacement activity (active/inactive)” value in data set [2] is “Active”. In addition, the Activity entry in the data set with Mus musculus [1] was “Tde”.
Consider `CCCCCCCCCCCCCCCC(=O)N[C@@H](CCCCN)C(=O)N[C@@H](Cc1ccccc1)C(=O)N[C@@H](CCCNC(=N)N)C(=O)N[C@@H](CCCNC(=N)N)C(=O)N[C@@H](CCC(N)=O)C(=O)N[C@@H](CCCNC(=N)N)C(=O)N1CCC[C@H]1C(=O)N[C@@H](CCCNC(=N)N)C(=O)N[C@@H](CC(C)C)C(=O)N[C@@H](CO)C(=O)N[C@@H](Cc1cnc[nH]1)C(=O)N[C@@H](CCCCN)C(=O)NCC(=O)N1CCC[C@H]1C(=O)N[C@@H](CCCC)C(=O)NC(C)(C)C(=O)N[C@@H](Cc1ccc(Br)cc1)C(=O)O` (Palmitoyl-KFRRQRPRLSHKGP[Nle][Aib][Phe(4-Br)]-OH), for which the “displacement activity (active/inactive)” value in data set [2] is “Active”. Further, in the data set with Mus musculus [1], the Activity result was “Tde”.
With `CCCCCCCCCCCCCCCC(=O)N[C@@H](CCCCN)C(=O)N[C@@H](Cc1ccccc1)C(=O)N[C@@H](CCCNC(=N)N)C(=O)N[C@@H](CCCNC(=N)N)C(=O)N[C@@H](CCC(N)=O)C(=O)N[C@@H](CCCNC(=N)N)C(=O)N1CCC[C@H]1C(=O)N[C@@H](CCCNC(=N)N)C(=O)N(C)[C@@H](CC(C)C)C(=O)N[C@@H](CO)C(=O)N[C@@H](Cc1cnc[nH]1)C(=O)N[C@@H](CCCCN)C(=O)NCC(=O)N1CCC[C@H]1C(=O)N[C@@H](CCCC)C(=O)NC(C)(C)C(=O)N[C@@H](Cc1ccc(Br)cc1)C(=O)O` (Palmitoyl-KFRRQRPR[NMeL]SHKGP[Nle][Aib][Phe(4-Br)]-OH), the outcome with Mus musculus [3] was Active. The “displacement activity (active/inactive)” value in data set [2] is “Active”.
Turning to `CCCC[C@H](NC(=O)[C@@H]1CCCN1C(=O)CNC(=O)[C@H](CCCCN)NC(=O)[C@H](Cc1cnc[nH]1)NC(=O)[C@H](CO)NC(=O)[C@H](CC(C)C)NC(=O)[C@H](CCCNC(=N)N)NC(=O)[C@@H]1CCCN1C(=O)[C@H](CCCNC(=N)N)NC(=O)[C@H](CCC(N)=O)NC(=O)[C@H](CCCNC(=N)N)NC(=O)[C@H](CCCNC(=N)N)NC(=O)[C@H](Cc1ccccc1)NC(=O)[C@H](CCCCN)NC(=O)CCOCCOCCOCCOCCOCCOCCNC(=O)OCC1c2ccccc2-c2ccccc21)C(=O)NC(C)(C)C(=O)N[C@@H](Cc1ccc(Br)cc1)C(=O)O` ({Fmoc-PEG6}-KFRRQRPRLSHKGP[Nle][Aib][Phe(4-Br)]-OH), in data set [2], the “displacement activity (active/inactive)” value is “Active”. Besides, the Activity entry in the data set with Mus musculus [1] was “Tde”.
The like results for `CCCC[C@H](NC(=O)[C@@H]1CCCN1C(=O)CNC(=O)[C@H](CCCCN)NC(=O)[C@H](Cc1cnc[nH]1)NC(=O)[C@H](CO)NC(=O)[C@H](CC(C)C)N(C)C(=O)[C@H](CCCNC(=N)N)NC(=O)[C@@H]1CCCN1C(=O)[C@H](CCCNC(=N)N)NC(=O)[C@H](CCC(N)=O)NC(=O)[C@H](CCCNC(=N)N)NC(=O)[C@H](CCCNC(=N)N)NC(=O)[C@H](Cc1ccccc1)NC(=O)[C@H](CCCCN)NC(=O)CCOCCOCCOCCOCCOCCOCCNC(=O)OCC1c2ccccc2-c2ccccc21)C(=O)NC(C)(C)C(=O)N[C@@H](Cc1ccc(Br)cc1)C(=O)O` ({Fmoc-PEG6}-KFRRQRPR[NMeL]SHKGP[Nle][Aib][Phe(4-Br)]-OH) were, in that order, “Active” and “Tde”.
Consider Plasma kallikrein (Homo sapiens), for which the Km in data set [4] was 30 µM; in data set [5], 245 µM; in data set [6], 2.2 µM; in data set [7] it was 1.8 µM; in data set [8] it was 2.4 µM. In addition, the results for the Vmax in data set [4] and in data set [5] were 0.316 µmol/min and 3.71 µmol/min, respectively. Besides, the kcat in data set [4] is 1.4 s⁻¹; in data set [5], 16.5 s⁻¹; in data set [8], 0.001 s⁻¹. In addition, the kcat/Km turned out to be 47000 M⁻¹ s⁻¹ in data set [4], 67000 M⁻¹ s⁻¹ in data set [5] and 420 M⁻¹ s⁻¹ in data set [8].

Values taken from ChEMBL document CHEMBL4400521, “Plasma kallikrein cleaves and inactivates apelin-17: Palmitoyl- and PEG-extended apelin-17 analogs as metabolically stable blood pressure-lowering agents” (Eur J Med Chem, 2019).
